# Values of other authors as cited in US20110287117A1, “Adjuvant Therapy in the Treatment of Gouty Arthritis” (UNIVERSITY OF MEDICINE AND DENTISTRY OF NEW JERSEY, priority 2009, published 2011).
# Details: in vivo
substance,measurement,value
recombinant IL-6: recombinant interleukin 6 administered in a cited study,serum SU level,lowered
same,urinary secretion of uric acid,increased
